Data on four compounds can be found in patent US20080200539A1, “Topical antifungal treatment” (priority 2002, published 2008).

Data set [1] can be described thus: pH of triacetin when applied to the skin. Type of data set: physicochemical. The source says:
Triacetin also acts to decrease the pH of the application area It is known that fungus like moist areas and thrive in environments with a normal acidity, pH 6.5 to 7.2. Yeasts die in low pH environments, i.e. pH levels in the range of 4.5 or less, and infectious fungi are adversely affected in low pH environments. Triacetin has a pH of 4.0 when applied to the skin, and effectively lowers the pH of the application area. As triacetin breaks down after application, it produces acetic acid, a weak antifungal agent. Triacetin also acts to lower the moisture content in the application area, which aids in creating an adverse environment for fungal growth. In high concentrations, such as in this preparation, triacetin reduces the secretion of moisture during perspiration, due to an astringent effect, or antihyperhydrosis effect. Triacetin also acts to reduce moisture by bonding with the moisture available in the affected area, reducing the opportunity or availability of the moisture to be utilized by the fungal cells. After application, triacetin also coats the application area, saturating the epidermis and limiting moisture available for fungal growth. Finally, triacetin can also be used for nutritional support whether administered orally, topically or intravenously, to restore healthy, normal skin as is seen with the topical administration of this preparation.

In data set [2] the test system is superficial fungal infections of the skin. The conditions noted are these: used alone; previous clinical studies by others; cited from earlier work.
The subject of another data set is Microsporum gypseum. The conditions noted are these: cited from earlier work.
The next data set relates to Microsporum canis. The conditions noted are these: cited from earlier work.
A further data set deals with Microsporum audouini. As to conditions: cited from earlier work.
A further data set has as its system Microsporum japonicum. As to conditions: cited from earlier work.
The next data set concerns Trichophyton rubrum. As to conditions: cited from earlier work.
Data set [3] deals with Trichophyton mentagrophytes. As to conditions: cited from earlier work.
Data set [4] concerns Trichophyton schoenleinii. The conditions noted are these: cited from earlier work.
The test system of another data set is Trichophyton tonsurans. The conditions noted are these: cited from earlier work.
The subject of another data set is Epidermophytom flocossum. As to conditions: cited from earlier work.
In a further data set the test system is Aspergillis niger. As to conditions: cited from earlier work.
The test system of data set [5] is nails infected by dermatophytes. As to conditions: cited from earlier work.
Data set [6] in a line: Topical vitamin A on surgical incision area in post surgical patients. Type of data set: in vivo. The conditions noted are these: 50,000 international units applied topically. The source says:
Vitamin A is a fat soluble vitamin that is used in a wide dosage range from 5 to 50,000 I.U. to assist in healing. […] Vitamin A is also important for nutritional support. Vitamin D is also a fat soluble vitamin utilized in nutritional support. Vitamin D is not recommended in doses of over 6000 International Units per day. Topical applications with vitamin A and D have been used for years to enhance healing and repair damaged skin.

In data set [1], `CC(=O)OCC(COC(C)=O)OC(C)=O` [Triacetin] returned a pH of 4.0. Moreover, the “effectiveness as an antifungal agent” value in data set [2] was “only mildly effective”.

`Cc1cccc(N(C)C(=S)Oc2ccc3ccccc3c2)c1` [tolnaftate]: the in vitro activity result (in the data set with Microsporum gypseum; in the data set with Microsporum canis; in the data set with Microsporum audouini; in the data set on Microsporum japonicum; in the data set on Trichophyton rubrum; in data set [3]) was “fungistatic or fungicidal” throughout. Further, the in vitro activity entry (in data set [4]; in the data set with Trichophyton tonsurans; in the data set with Epidermophytom flocossum) was “fungistatic or fungicidal” throughout. For the same compound, the “activity against Aspergillis niger” value in the data set with Aspergillis niger was “varies from one strain to another”.

Turning to `CN(C/C=C/C#CC(C)(C)C)Cc1cccc2ccccc12` [terbinafine], the “duration of continuous daily intake needed to show some efficacy” value in data set [5] is “three months or more”.

Regarding Vitamin A, in data set [6], the healing time result was “improved healing time”.
